In the assay the target is Activin receptor type-1 (Homo sapiens) (UniProt Q04771). The experiment in a line: ACVR1 enzymatic activity inhibition – biochemical, secondary in vitro, SAR follow-up (AID 652276). The conditions noted are these: in vitro ALK2 kinase assay; for remaining activity (low = inhibition): at 100 µM (top of the series).

Activity calls are given as the source filed them. No rule for the calls is given here.

Chain of Activin receptor type-1 (Homo sapiens) (Q04771 whole entry, looked up): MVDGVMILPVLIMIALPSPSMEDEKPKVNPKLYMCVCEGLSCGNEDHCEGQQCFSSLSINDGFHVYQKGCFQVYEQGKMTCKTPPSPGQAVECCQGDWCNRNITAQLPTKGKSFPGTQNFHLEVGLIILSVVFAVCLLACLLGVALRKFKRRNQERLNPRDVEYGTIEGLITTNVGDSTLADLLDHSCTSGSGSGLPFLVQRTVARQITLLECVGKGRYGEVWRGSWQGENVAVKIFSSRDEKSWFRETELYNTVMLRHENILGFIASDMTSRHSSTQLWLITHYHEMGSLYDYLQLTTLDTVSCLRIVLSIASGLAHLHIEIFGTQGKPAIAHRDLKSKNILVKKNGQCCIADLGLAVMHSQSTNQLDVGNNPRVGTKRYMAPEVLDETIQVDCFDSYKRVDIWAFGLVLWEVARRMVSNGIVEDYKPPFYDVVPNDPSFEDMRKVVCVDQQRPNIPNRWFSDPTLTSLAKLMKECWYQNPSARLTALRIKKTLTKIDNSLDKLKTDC

For `COc1ccc(-c2cnc3c(-c4cn[nH]c4)cnn3c2)cc1`, the IC50 was 110 nM. As to `c1ccc2c(-c3cnn4cc(-c5ccc(N6CCOCC6)cc5)cnc34)ccnc2c1`, the remaining activity (low = inhibition) is 0.93. With `COc1ccc(-c2cnc3c(-c4ccnc5ccccc45)cnn3c2)cc1`, the IC50 is 33 nM. Still for that read-out and setting: the value for `c1cc(N2CCOCC2)ccc1-c1cnc2c(-c3cn[nH]c3)cnn2c1` was 53 nM; that for `c1cc(N2CCNCC2)ccc1-c1cnc2c(-c3cn[nH]c3)cnn2c1` was 43 nM.

Take `COc1ccc(-c2cnc3c(-c4ccnc5ncccc45)cnn3c2)cc1`: the IC50 was 121 nM.

Regarding `CN1CCN(c2ccc(-c3cnc4c(-c5ccnc6ccccc56)cnn4c3)cc2)CC1`, the remaining activity (low = inhibition) is -0.03. As for `COc1ccc(-c2cnc3c(-c4cccc5cccnc45)cnn3c2)cc1`, the “remaining activity (low = inhibition)” value is “inactive”.

These data come from PubChem BioAssay AID652276 (Vanderbilt Specialized Chemistry Center, 2013).
